Laboratory results as given in patent US9982073B2, “Homopolymers of terpenoid alcohols and their uses” (priority 2015, dated 2018).

Columns and labels:
Format in all cases: cell-based
Aspergillus niger = assay: Disk inhibition testing, A. niger; settings: 48 hours at 25° C.
Experimental: (§1) Fungal broths of Aspergillus fumigatus and Aspergillus niger were prepared in a tissue culture hood by transferring the frozen stock culture (−70° C. freezer) of the given fungi to a plate of Sabourad Dextrose Agar. The A. fumigatus culture plates were incubated for 48 hours at 37° C. and the A. niger culture plates were incubated for 72 hours at 25° C. The fungal broth was prepared by using a cork borer to add 2-3 circular pieces of agar containing active fungal growth to distilled water (4.0 mL). A tissue homogenizer was then used to grind the agar and create a suspension of fungal spores.
(§2) Each sample (˜15 mg) was dissolved in a solvent (3.000 mL of tetrahydrofuran or 3.000 mL distilled water) depending on the sample's solubility. The sample (20 μL of sample solution or 100 μg of sample was then transferred to a sterile filter paper disk. The disk was then allowed to dry so that all solvent was evaporated and 100 μg of sample remained on the disk. […]
(§3) The C. albicans and A. fumigfatus plates were incubated for 24 hours at 37° C., the A. niger plates were incubated for 48 hours at 25° C. and the S. cerevisiae plates were incubated for 24 hours at 30° C. […] Where a zone of growth inhibition was observed, the diameter of the ring was measured to the closest 0.1 mm using a caliper. […]

Aspergillus fumigatus = assay: Disk inhibition testing, A. fumigatus; settings: pre-made antifungal disk 20 μg; 24 hours at 37° C.
Experimental: as §1, §2, §3

Candida albicans = assay: Disk inhibition testing, C. albicans; settings: 24 hours at 37° C.
Experimental: (§4) Plates of Sabourad Dextrose Agar (Difco) and tubes of Malt Extract Broth (20 mL/tube) were prepared according to manufacturer direction using aseptic techniques. Fungal broths of Saccharomyces cerevisiae and Candida albicans were prepared in a tissue culture hood by transferring frozen stock culture (−70° C. freezer, prepared from ATCC bought strains) of the given fungi to the broth tube. The S. cerevisiae culture tubes were incubated for 48 hours at 30° C. and the C. albicans culture tubes were incubated for 48 hours at 37° C.
(§5) Each sample (˜15 mg) was dissolved in a solvent (3.000 mL of tetrahydrofuran or 3.000 mL distilled water) depending on the sample's solubility. The sample (20 μL of sample solution or 100 μg of sample was then transferred to a sterile filter paper disk. The disk was then allowed to dry so that all solvent was evaporated and 100 μg of sample remained on the disk.
Plates of Sabourad Dextrose Agar (Difco) were prepared according to manufacture directions using aseptic techniques. […]
as §3

Saccharomyces cerevisiae = assay: Disk inhibition testing, S. cerevisiae; settings: 24 hours at 30° C.; for zone of inhibition at 100 µg/disc: Saccharomyces cerevisiae, 100 μg sample per disk, NI = no inhibition, read-out: Diameter of zone of growth inhibition, S. Cerevisiae
Experimental: as §4, §5
Plates of Sabourad Dextrose Agar (Difco) were prepared according to manufacture directions using aseptic techniques. The fungal agar plates were prepared using the culture broth of S. cerevisiae, C. albicans, A. fumigatus or A. niger as prepared above after the incubation period. In a tissue culture hood, the fungal culture broth solution (200 μL) was transferred to each Sabourad Dextrose Agar plate and spread evenly over the agar and allowed to dry for a minimum of 20 minutes. Four sample disks or control antifungal disks were then places onto each agar plate, one in the center of each quadrant of the plate. The sample disks were prepared as described above and the antifungal disks were pre-made disks of 20 μg of amphotericin B.
The C. albicans and A. fumigfatus plates were incubated for 24 hours at 37° C., the A. niger plates were incubated for 48 hours at 25° C. and the S. cerevisiae plates were incubated for 24 hours at 30° C. The plates were then observed for zones of fungal growth inhibition. Where a zone of growth inhibition was observed, the diameter of the ring was measured to the closest 0.1 mm using a caliper. […]

Proteus hauseri = assay: Disk inhibition testing, P. hauseri; settings: 24 hours at 37° C.; for zone of inhibition at 100 µg/disc: Proteus hauseri, 100 μg sample per disk, NI = no inhibition, read-out: Diameter of zone of growth inhibition, P. Hauseri
Experimental: (§6) Tubes of Tryptic Soy Broth (10 mL/tube,) were prepared according to manufacturer directions (Difco) using aseptic techniques. Bacterial broth of Escherichia coli, Staphylococcus aureus, Pseudomonas aeruginosa, Proteus hauseri, and Bacillus cereus were prepared in a tissue culture hood by transferring frozen stock culture (−70° C. freezer, prepared from ATCC bacterial quality control strains) of the given bacteria to the broth tube. The E. coli, S. aureus, P. aeruginosa, and P. hauseri culture tubes were then incubated for 24 hours at 37° C. and the B. cereus culture tubes were incubated at 30° C. for 24 hours.
as §5
(§7) Plates of Mueller Hinton II Agar (Difco) were prepared according to manufacturer directions using aseptic techniques. The bacterial agar plates were prepared using the bacterial culture broth of E. coli, S. aureus, P. aeruginosa, P. hauseri, or B. cereus as prepared above after the incubation period. In a tissue culture hood, the given bacterial culture broth solution (300 μL) was transferred to each Mueller Hinton Agar II plate and spread evenly over the agar and allowed to dry for a minimum of 20 minutes. Four sample disks (as prepared above) or control antibiotic disks (pre-made disks) were then places onto each agar plate, one in the center of each quadrant of the plate.
(§8) The E. coli, S. aureus, P. aeruginosa, and P. hauseri, plates were incubated for 24 hours at 37° C. and the B. cereus plates were incubated for 24 hours at 30° C. The plates were then observed for zones of bacterial growth inhibition. Where a zone of growth inhibition was observed, the diameter of the ring was measured to the closest 0.1 mm using a caliper. […] The absence of a uniform bacterial lawn was ruled a failed test and in this case the test would need to be repeated in order to achieve meaningful results.

Pseudomonas aeruginosa = assay: Disk inhibition testing, P. aeruginosa; settings: 24 hours at 37° C.
Experimental: as §6, §5, §7, §8

Escherichia coli = assay: Disk inhibition testing, E. coli; settings: 24 hours at 37° C.; for zone of inhibition at 100 µg/disc: Escherichia coli, 100 μg sample per disk, NI = no inhibition, read-out: Diameter of zone of growth inhibition, E. Coli
Experimental: as §6, §5, §7, §8

Bacillus cereus = assay: Disk inhibition testing, B. cereus; settings: pre-made control disk 30 μg; 24 hours at 30° C.
Experimental: as §6, §5
Plates of Mueller Hinton II Agar (Difco) were prepared according to manufacturer directions using aseptic techniques. […]
The E. coli, S. aureus, P. aeruginosa, and P. hauseri, plates were incubated for 24 hours at 37° C. and the B. cereus plates were incubated for 24 hours at 30° C. […] Where a zone of growth inhibition was observed, the diameter of the ring was measured to the closest 0.1 mm using a caliper. […]

Staphylococcus aureus = assay: Disk inhibition testing, S. aureus; settings: 24 hours at 37° C.; for zone of inhibition at 100 µg/disc: Staphylococcus aureus, 100 μg sample per disk, NI = no inhibition, read-out: Diameter of zone of growth inhibition, S. Aureus
Experimental: as §6, §5, §7, §8

C[C@@H]1[C@H](O)[C@@H](C)/C=C/C=C/C=C/C=C/C=C/C=C/C=C/[C@H](O[C@@H]2O[C@H](C)[C@@H](O)[C@H](N)[C@@H]2O)C[C@@H]2O[C@](O)(C[C@@H](O)C[C@@H](O)[C@H](O)CC[C@@H](O)C[C@@H](O)CC(=O)O[C@H]1C)C[C@H](O)[C@H]2C(=O)O [Amphotericin B, amphotericin B]
Diameter of zone of growth inhibition, A. Niger (Aspergillus niger; pre-made antifungal disk 20 μg): 9.7 mm
Diameter of zone of growth inhibition, A. Fumigratus (Aspergillus fumigatus): 11.4 mm
Diameter of zone of growth inhibition, C. Albicans (Candida albicans; pre-made antifungal disk 20 μg): 12.9 mm
Diameter of zone of growth inhibition, S. Cerevisiae (Saccharomyces cerevisiae; pre-made antifungal disk 20 μg): 10.2 mm

CC1(C)S[C@@H]2[C@H](NC(=O)[C@H](N)c3ccccc3)C(=O)N2[C@H]1C(=O)O [Ampicillin]
Diameter of zone of growth inhibition, P. Hauseri (Proteus hauseri; pre-made control disk 10 μg): 7.2 mm
Diameter of zone of growth inhibition, P. Aeriginosa (Pseudomonas aeruginosa; pre-made control disk 10 μg, NI = no inhibition): 9.1 mm
Diameter of zone of growth inhibition, E. Coli (Escherichia coli; pre-made control disk 10 μg): 19.7 mm

O=C(N[C@H](CO)[C@H](O)c1ccc([N+](=O)[O-])cc1)C(Cl)Cl [Chloramphenicol]
Diameter of zone of growth inhibition, P. Hauseri (Proteus hauseri; pre-made control disk 30 μg): 16.7 mm
Diameter of zone of growth inhibition, B. Cereus (Bacillus cereus): 15.7 mm
Diameter of zone of growth inhibition, P. Aeriginosa (Pseudomonas aeruginosa; pre-made control disk 30 μg): 18.7 mm
Diameter of zone of growth inhibition, S. Aureus (Staphylococcus aureus; pre-made control disk 30 μg): 17.8 mm
Diameter of zone of growth inhibition, E. Coli (Escherichia coli; pre-made control disk 30 μg): 24.4 mm

CC(C)=CCCC(C)CCO (centres unmarked) [Citronellol]
zone of inhibition at 100 µg/disc (Proteus hauseri): 8.8 mm
zone of inhibition at 100 µg/disc (Saccharomyces cerevisiae): 6.7 mm
zone of inhibition at 100 µg/disc (Staphylococcus aureus): 5.4 mm
zone of inhibition at 100 µg/disc (Escherichia coli): 8.7 mm

CC(C)=CCC/C(C)=C/CO [Geraniol]
zone of inhibition at 100 µg/disc (Proteus hauseri): 9.3 mm
zone of inhibition at 100 µg/disc (Aspergillus niger; Aspergillus niger, 100 μg sample per disk, NI = no inhibition, read-out: Diameter of zone of growth inhibition, A. Niger): 8.1 mm
zone of inhibition at 100 µg/disc (Candida albicans; Candida albicans, 100 μg sample per disk, NI = no inhibition, read-out: Diameter of zone of growth inhibition, C. Albicans): 8.3 mm
zone of inhibition at 100 µg/disc (Staphylococcus aureus): 4.7 mm
zone of inhibition at 100 µg/disc (Escherichia coli): 8.5 mm

C=CC(C)(O)CCC=C(C)C (centres unmarked) [Linalool]
zone of inhibition at 100 µg/disc (Pseudomonas aeruginosa; Pseudomonas aeruginosa, 100 μg sample per disk, NI = no inhibition, read-out: Diameter of zone of growth inhibition, P. Aeriginosa): 7.1 mm
zone of inhibition at 100 µg/disc (Saccharomyces cerevisiae): 7.3 mm
zone of inhibition at 100 µg/disc (Escherichia coli): 7.2 mm

CN(C)[C@@H]1C(O)=C(C(N)=O)C(=O)[C@@]2(O)C(O)=C3C(=O)c4c(O)cccc4[C@@](C)(O)[C@H]3C[C@@H]12 [Tetracycline]
Diameter of zone of growth inhibition, P. Hauseri (Proteus hauseri; pre-made control disk 30 μg): 15.9 mm
Diameter of zone of growth inhibition, B. Cereus (Bacillus cereus): 23.4 mm
Diameter of zone of growth inhibition, P. Aeriginosa (Pseudomonas aeruginosa; pre-made control disk 30 μg): 12.3 mm
Diameter of zone of growth inhibition, S. Aureus (Staphylococcus aureus; pre-made control disk 30 μg): 19.0 mm
Diameter of zone of growth inhibition, E. Coli (Escherichia coli; pre-made control disk 30 μg): 21.4 mm

Penicillin
Diameter of zone of growth inhibition, P. Hauseri (Proteus hauseri; pre-made control disk 10 μg): 8.1 mm
Diameter of zone of growth inhibition, S. Aureus (Staphylococcus aureus; pre-made control disk 10 μg): 16.9 mm
Diameter of zone of growth inhibition, E. Coli (Escherichia coli; pre-made control disk 10 μg): 9.4 mm
